From paper PMC12430443, “Discovery of Novel Benzamide-Based Sigma-1 Receptor Agonists with Enhanced Selectivity and Safety” (Molecules, 2025) come the findings set out here.

By Ki is commonly meant the dissociation constant of the complex between target and ligand, obtained from inhibition or displacement. Low values mean tighter binding, high ones weaker binding. One may read the IC50 as the concentration needed to halve the response being measured. Read a high IC50 as weaker potency.

The target of one data set is T1, S1R (Homo sapiens, UniProt Q99720).
T1 construct: For the S1R assay, Jurkat cell membranes (10–20 μg protein/tube) were incubated at 37 °C for 2 h; host or cells: Jurkat cell membranes
T1 sequence (Q99720 whole entry): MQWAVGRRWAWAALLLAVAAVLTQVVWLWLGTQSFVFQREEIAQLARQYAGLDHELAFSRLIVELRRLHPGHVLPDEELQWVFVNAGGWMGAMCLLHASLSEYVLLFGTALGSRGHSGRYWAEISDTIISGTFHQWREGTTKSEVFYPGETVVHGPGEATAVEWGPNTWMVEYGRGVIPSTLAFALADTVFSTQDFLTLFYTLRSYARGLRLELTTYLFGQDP
Description: S1R competitive radioligand binding, [3H](+)-pentazocine, Jurkat cell membranes. The note with it: for Ki: [3H](+)-pentazocine, mean of 2–3 independent experiments; for Ki / IC50: Jurkat cell membranes; for IC50: [3H]-(+)-pentazocine displacement, n = 2; for Ki (S2R)/ Ki (S1R): selectivity ratio S2R/S1R. An excerpt: (§1) S1R and S2R affinities were classically evaluated through competitive binding assays using radioligands, following the protocol described by Ganapathy et al.. The selective radioligand [^3H] (+)-pentazocine was employed as the classic prototypical ligand, selectively binding to the orthosteric S1R-binding sites. […] Jurkat cell membranes served as the receptor source in both assays. The equilibrium dissociation constants (Ki) for S1R and S2R were derived from the IC50 values of each compound, and selectivity ratios (S2R/S1R) were subsequently calculated (Table 1, Figures S2 and S3).
(§2) Binding assays were performed by Eurofins Cerep (Poitiers, France) according to the protocol of Ganapathy. […] For the S2R assay, Jurkat cell membranes (10–20 μg protein/tube) were incubated at room temperature for 1 h in the same buffer with [^3H]-DTG (25 nM) in the presence of (+)-pentazocine (1 μM) to saturate S1R, along with a range of test compound concentrations. Bound radioactivity was quantified by liquid scintillation counting. Nonspecific binding was determined under identical conditions in the presence of 10 μM unlabeled haloperidol. The IC50 values (concentration causing a half-maximal inhibition of control-specific binding) and Hill coefficients (nH) were determined by non-linear regression analysis of the competition curves generated with mean replicate values using Hill equation curve-fitting. This analysis was performed using software developed at Cerep (Hill software) and validated by comparison with data generated by the commercial software SigmaPlot ®4.0 for Windows® (©1997 by SPSS Inc.). Inhibition constants (Ki) were calculated from IC50 values using the method of Cheng and Prusoff.

Another data set concerns the target T2, S2R (Homo sapiens, UniProt Q5BJF2).
T2 construct: For the S2R assay, Jurkat cell membranes (10–20 μg protein/tube) were incubated at room temperature for 1 h; host or cells: Jurkat cell membranes
Kind of data set: S2R competitive radioligand binding, [3H]-DTG with excess (+)-pentazocine, Jurkat cell membranes. The note with it: for IC50: [3H]-DTG displacement with excess (+)-pentazocine, n = 2.
From the text: as §1, §2

Data set [1] has as its system SH-SY5Y neuroblastoma cells. Kind of data set: Cytotoxicity, MTT/MTS assay. The format is cell-based, human. The note with it: for IC50 (SY5Y)/ Ki (S1R): selectivity index, IC50 was considered > 100 µM. Here is the method: (§3) To assess potential cytotoxicity in CNS-relevant cells, human neuroblastoma (SH-SY5Y) cells were exposed to compounds 2–7 at concentrations up to 100 μM. Cell viability was measured using the MTT assay.
(§4) Cytotoxicity was assessed in human SH-SY5Y neuroblastoma cells cultured in Dulbecco’s Modified Eagle Medium (DMEM, Gibco, Thermo Fisher Scientific Inc., Waltham, MA, USA) supplemented with 2 mM L-glutamine, 100 μg/mL streptomycin, 100 IU/mL penicillin, 1 mM non-essential amino acids (all from Invitrogen, Thermo Fisher Scientific Inc., Waltham, MA, USA), and 10% (v/v) heat-inactivated fetal bovine serum (Sigma-Aldrich, Burlington, MA, USA). Cells were maintained at 37 °C in a humidified 5% CO2 atmosphere and serum-starved for 24 h to synchronize cultures before treatment with the test compounds at final concentrations of 100, 50, 10, 5, 1, 0.5, 0.1, or 0.05 μM (all in <0.1% DMSO). […] Absorbance was measured at 490 nm, and the results were expressed as a percentage relative to untreated control cells (set at 100%).

The next data set deals with T3, S1R-BiP complex (Cricetulus griseus, UniProt A0A3L7I3A5).
T3 construct: host or cells: CHO cells
T3 sequence (A0A3L7I3A5 1-223, one chain of several): as the sequence (Q99720 whole entry) above, with A4S, V5L, A12I, L15F, V25A, S34N, R39Q counted along it
Kind of data set: S1R-BiP complex dissociation, co-immunoprecipitation and BiP ELISA in CHO cells. It counts as cell-based. Particulars: for S1R-BiP complex levels: 10 µM. Here is the method:
The interaction between S1R and BiP provides a reliable assay to identify S1R ligands by monitoring the dynamics of the S1R-BiP complex. In this assay, the known S1R agonist PRE-084 and antagonist NE-100 were used as controls (Figure 3).
The ability of the compounds to promote dissociation of the S1R–BiP complex was assessed by Amylgen (Montferrier-sur-Lez, France) as described in [22, 23]. CHO cells were treated with the test compounds for 30 min at 37 °C, followed by crosslinking with dithiobis(succinimidyl propionate) (DSP; Thermo Scientific, Waltham, MA, USA). Cells were lysed after 15 min on ice, and the lysates were centrifuged. Supernatants were incubated overnight at 4 °C with an anti-S1R antibody (Abcam, Cambridge, UK), and then with Protein A-Sepharose (Invitrogen). After the first centrifugation, pellets were resuspended in radioimmunoprecipitation assay (RIPA) buffer, centrifuged again, and resuspended in 2× sample buffer/bMCE buffer. Following a third centrifugation, the supernatants were analyzed for BiP immunoreactivity using an ELISA kit (SEC343Mu, USCNK Life Sciences, Wuhan, China).
Figure 3 In vitro evaluation of agonist activity of compounds 2, 3, and 6: The effects of compounds 2, 3, and 6 at 1 and 10 µM on the S1R-BiP association after 30 min of incubation were analyzed by co-immunoprecipitation using an anti-S1R antibody (red). BiP levels were quantified by ELISA. PRE-084 (white) and NE-100 (black) served as the reference agonist and antagonist, respectively (10 µM). Agonist activity was confirmed by its blockade with NE-100 (black hatching). […] Data represent the mean ± SEM from n = 6 per condition. Statistical significance was assessed using Dunnett’s test: *** p < 0.0001, * p < 0.05 vs. untreated control; ### p < 0.0001, # p < 0.05 for NE-100 blockade.
On the technique in general: In an ELISA, binding on a coated surface is turned into a signal by an enzyme label.

A further data set concerns the target serotonin 5-HT3 receptor (Homo sapiens, UniProt P46098). Description: Off-target panel, aequorin functional assay. The format is cell-based. Particulars: 10 µM, duplicate; % inhibition of reference agonist activity. The procedure:
(§5) Among the synthesized compounds, four derivatives were selected based on their affinity and selectivity profiles. […] The remaining compounds (2, 3, 6, and 7) were assessed for their agonist and antagonist activities across a panel of 58 receptors relevant to CNS disorders, including serotonin, adenosine, adrenergic, cannabinoid, dopamine, histamine, and muscarinic receptors. These assays were conducted at a concentration of 10 µM, in duplicate, utilizing aequorin [19], cAMP HTRF™ [20], and GTPγS binding assays, as detailed in Table 2. […] Specifically, compound 6 antagonized four receptors (5-HT2A, 5-HT2C, α1a, H1), while compound 7 was active against five receptors (5-HT2A, 5-HT3, α1a, H1, M1).
(§6) Rapidly, the tests were performed by Euroscreen (https://euroscreenfast.com/) with recombinant human G-coupled receptor-expressing cell lines using aequorin functional assays for serotonin 5-HT2A, 5-HT2B, 5-HT2C, 5-HT3, and 5-HT5A, adrenergic α1a and α1b, angiotensin AT1, cholesistokinin CCFK1, endothelin ETA, histamine H1, muscarinic M1 and M3, neurokinin NK1 and NK2, vasopressin V1a, and vasoactive intestinal peptide VPAC1 receptor analysis. Then, cAMP HTRF^TM assays were used to analyze serotonin 5-HT1A, 5-HT4E, 5-HT6, and 5-HT7, adenosine A1, A2A, and A3, adrenergic β1 and β2, cannabinoid CB1, dopamine D1, histamine H2, and neuropeptide Y NPY receptors. GTPγS^35 assays were used to analyze serotonin 5-HT1B, adrenergic α2a and α2b, dopamine D2, muscarinic M2 and M4, opioid δ, κ and µ, and somatostatine SST4 receptors.
(§7) Agonist and antagonist activities of the test compound are expressed as the percentage of the activity of the reference agonist at its EC100 concentration or the percentage of inhibition of the reference agonist activity at its EC80 concentration, respectively.
(§8) For the aequorin assays, different cell lines co-expressing the receptors were grown in specific culture media and incubated for 4 h with coelenterazine h. For agonist testing, cell suspensions were mixed with test or reference agonists in a 96-well plate. For antagonist testing, the reference agonist at its EC80 (final concentration) was injected to the mix the containing cells and the tested compound. The resulting emission of light was recorded using the Hamamatsu Functional Drug Screening System 6000 [19].

The next data set concerns the target adrenergic α1a receptor (Homo sapiens, UniProt P35348). Description: Off-target panel, aequorin functional assay. It counts as cell-based. The note with it: 10 µM, duplicate; % inhibition of reference agonist activity. The procedure: as §5, §6, §7, §8
Data set [2] addresses serotonin 5-HT2C receptor (Homo sapiens, UniProt P28335). Description: Off-target panel, aequorin functional assay. It counts as cell-based. Particulars: 10 µM, duplicate; % inhibition of reference agonist activity. Here is the method:
as §5, §6, §7, §8

The target in a further data set is adrenergic α1b receptor (Homo sapiens, UniProt P35368). Kind of data set: Off-target panel, aequorin functional assay. The format is cell-based. The note with it: 10 µM, duplicate; % inhibition of reference agonist activity. Here is the method: as §5, §6, §7, §8
adrenergic α1b receptor, sequence (P35368 whole entry): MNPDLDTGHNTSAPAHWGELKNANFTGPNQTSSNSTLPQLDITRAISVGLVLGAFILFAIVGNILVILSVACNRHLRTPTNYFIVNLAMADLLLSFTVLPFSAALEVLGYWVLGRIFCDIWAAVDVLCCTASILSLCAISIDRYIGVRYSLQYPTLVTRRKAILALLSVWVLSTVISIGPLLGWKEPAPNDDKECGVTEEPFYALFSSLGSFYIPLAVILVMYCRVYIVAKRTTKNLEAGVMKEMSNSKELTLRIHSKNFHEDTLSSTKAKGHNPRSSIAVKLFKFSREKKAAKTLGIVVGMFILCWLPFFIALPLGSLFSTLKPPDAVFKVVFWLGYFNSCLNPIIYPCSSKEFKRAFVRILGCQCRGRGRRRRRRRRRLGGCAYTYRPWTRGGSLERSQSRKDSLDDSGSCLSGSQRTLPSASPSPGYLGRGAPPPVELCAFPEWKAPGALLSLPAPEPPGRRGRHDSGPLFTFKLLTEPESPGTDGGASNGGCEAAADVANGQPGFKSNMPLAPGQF
For the next data set, the target named is CXCR1 (Homo sapiens, UniProt P25024). Kind of data set: Off-target panel of recombinant human receptors. It counts as cell-based. Particulars: 10 µM, duplicate; % inhibition of reference agonist activity. Here is the method: as §5, §7
CXCR1, sequence (P25024 whole entry): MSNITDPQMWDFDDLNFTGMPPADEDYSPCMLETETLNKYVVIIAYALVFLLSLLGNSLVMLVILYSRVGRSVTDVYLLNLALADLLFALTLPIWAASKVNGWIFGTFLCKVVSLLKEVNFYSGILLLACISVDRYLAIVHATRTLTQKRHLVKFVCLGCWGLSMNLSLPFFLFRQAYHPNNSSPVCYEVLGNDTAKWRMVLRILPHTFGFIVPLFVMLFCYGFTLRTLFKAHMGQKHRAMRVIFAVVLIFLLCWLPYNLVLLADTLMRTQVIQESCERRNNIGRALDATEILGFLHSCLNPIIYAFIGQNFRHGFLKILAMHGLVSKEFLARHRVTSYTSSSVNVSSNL
The target in a further data set is D4.4 (Homo sapiens, UniProt P21917). Kind of data set: Off-target panel of recombinant human receptors. The note with it: 10 µM, duplicate; % inhibition of reference agonist activity. It counts as cell-based. Here is the method: as §5, §7
D4.4, sequence (P21917 whole entry): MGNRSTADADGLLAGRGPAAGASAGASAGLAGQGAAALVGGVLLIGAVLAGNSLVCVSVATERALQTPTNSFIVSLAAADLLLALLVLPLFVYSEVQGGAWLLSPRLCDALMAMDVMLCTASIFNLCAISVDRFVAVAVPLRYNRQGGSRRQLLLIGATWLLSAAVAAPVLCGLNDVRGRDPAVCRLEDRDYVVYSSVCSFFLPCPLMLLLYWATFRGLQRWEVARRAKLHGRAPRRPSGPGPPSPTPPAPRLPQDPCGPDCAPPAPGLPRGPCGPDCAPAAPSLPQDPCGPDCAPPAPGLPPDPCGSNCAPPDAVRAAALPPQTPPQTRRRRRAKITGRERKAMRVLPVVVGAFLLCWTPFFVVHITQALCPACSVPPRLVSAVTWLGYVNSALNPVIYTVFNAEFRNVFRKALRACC
Data set [3] in a line: Cytotoxicity, MTT/MTS assay. The format is cell-based, human. The note with it: human, SH-SY5Y neuroblastoma cells; percentage of cell death after 24 h treatment at 100 µM (duplicate); read-out: SY5Y % Cytotox. Here is the method: as §3, §4
Background: Tetrazolium dyes change colour on reduction, which living cells bring about.

T2 sequence (Q5BJF2 whole entry): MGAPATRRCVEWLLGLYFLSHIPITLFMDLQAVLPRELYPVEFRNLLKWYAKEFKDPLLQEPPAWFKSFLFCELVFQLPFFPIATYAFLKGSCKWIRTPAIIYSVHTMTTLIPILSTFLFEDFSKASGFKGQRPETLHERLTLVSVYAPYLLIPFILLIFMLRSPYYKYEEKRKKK
adrenergic α1a receptor, sequence (P35348 whole entry): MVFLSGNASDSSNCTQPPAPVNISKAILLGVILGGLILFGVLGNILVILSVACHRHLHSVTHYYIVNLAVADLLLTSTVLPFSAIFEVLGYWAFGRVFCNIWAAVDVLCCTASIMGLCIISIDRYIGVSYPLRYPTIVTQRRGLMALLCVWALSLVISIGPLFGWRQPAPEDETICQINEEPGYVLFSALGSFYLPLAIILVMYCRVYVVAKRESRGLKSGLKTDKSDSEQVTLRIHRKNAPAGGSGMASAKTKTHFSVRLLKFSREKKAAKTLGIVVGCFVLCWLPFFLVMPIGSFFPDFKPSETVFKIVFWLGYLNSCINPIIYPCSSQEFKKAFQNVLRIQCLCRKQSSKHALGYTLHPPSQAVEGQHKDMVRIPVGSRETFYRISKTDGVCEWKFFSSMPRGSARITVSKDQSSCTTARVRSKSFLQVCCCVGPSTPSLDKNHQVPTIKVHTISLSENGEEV
serotonin 5-HT2C receptor, sequence (P28335 33-458): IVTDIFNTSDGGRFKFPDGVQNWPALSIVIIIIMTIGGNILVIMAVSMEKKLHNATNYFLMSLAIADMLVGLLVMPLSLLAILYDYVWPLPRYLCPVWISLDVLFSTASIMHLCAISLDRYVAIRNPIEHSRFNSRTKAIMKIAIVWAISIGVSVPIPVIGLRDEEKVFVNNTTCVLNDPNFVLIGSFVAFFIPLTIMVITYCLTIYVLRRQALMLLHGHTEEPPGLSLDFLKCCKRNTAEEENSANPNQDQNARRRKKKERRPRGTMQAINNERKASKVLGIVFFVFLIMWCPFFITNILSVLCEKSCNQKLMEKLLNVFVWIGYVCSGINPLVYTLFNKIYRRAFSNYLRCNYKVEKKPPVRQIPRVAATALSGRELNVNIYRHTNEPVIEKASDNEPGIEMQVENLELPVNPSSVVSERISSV
serotonin 5-HT3 receptor, sequence (P46098 24-478): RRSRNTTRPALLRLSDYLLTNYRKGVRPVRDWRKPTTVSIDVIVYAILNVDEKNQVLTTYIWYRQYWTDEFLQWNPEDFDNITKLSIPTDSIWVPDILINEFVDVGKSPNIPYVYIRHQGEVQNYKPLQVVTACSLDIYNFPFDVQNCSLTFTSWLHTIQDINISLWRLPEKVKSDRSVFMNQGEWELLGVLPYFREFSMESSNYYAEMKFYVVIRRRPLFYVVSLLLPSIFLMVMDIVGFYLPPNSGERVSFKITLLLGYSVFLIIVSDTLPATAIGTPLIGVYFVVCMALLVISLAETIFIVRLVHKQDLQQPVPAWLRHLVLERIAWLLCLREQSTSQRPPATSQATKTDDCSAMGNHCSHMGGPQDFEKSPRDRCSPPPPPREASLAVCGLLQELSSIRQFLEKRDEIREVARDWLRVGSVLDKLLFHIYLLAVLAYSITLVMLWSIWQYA

As for “3-(Benzylmethylamino)-N-(3-bromobenzyl)propanamide [Compound 4]”, the Ki on S1R was over 200 nM; at S2R ([3H]-DTG with (+)-pentazocine, mean of 2–3 independent experiments), over 200 nM. The “SY5Y % Cytotox” value in data set [1] (100 µM) is given as 6%.

For the molecule `CCCN(CCC)CCc1ccc(OC)c(OCCc2ccccc2)c1` [NE-100, reference compound], at S1R-BiP complex (30 min incubation, CHO cells), the S1R-BiP complex levels is 90–100 % of the control.

On to `CN(CCC(=O)NCc1ccc(Cl)cc1)Cc1ccccc1` [Compound 3, 3-(Benzylmethylamino)-N-(4-chlorobenzyl)propanamide], for which the “5-HT3 [b] antagonist activity” value at serotonin 5-HT3 receptor was determined as 72%. In addition, the “α1a [b] antagonist activity” value at adrenergic α1a receptor turned out to be 88%. Further, the “5-HT2C [b] antagonist activity” value in data set [2] was determined as 76%. For the same molecule, the “α1b [b] antagonist activity” value on adrenergic α1b receptor was determined as 65%. In addition, the “Dissociation of the S1R-BiP complex (in words)” value at S1R-BiP complex (1 and 10 µM, 30 min incubation, CHO cells, n = 6) is listed as “significant, dose-dependent dissociation”. Moreover, the “Dissociation of S1R-BiP complex in the presence of NE-100 (in words)” value at S1R-BiP complex (co-treatment with NE-100 (10 µM)) is “completely inhibited”. Moreover, at CXCR1, the “CXCR1 [b] antagonist activity” value is 54%. Moreover, on D4.4, the “D4.4 [b] antagonist activity” value is 84%. Further, at S1R, the IC50 was 3.3 nM and the “Ki (S2R)/ Ki (S1R)” value is 241. Also, the IC50 on S2R worked out at 540 nM. Besides, the cytotoxicity at 24 h, 100 µM in data set [3] worked out at 1%. The “IC50 (SY5Y)/ Ki (S1R)” value in data set [1] is on record as >58,823.

Turning to `CN(CCC(=O)NCc1ccc(Cl)cc1Cl)Cc1ccccc1` [Compound 5, 3-(Benzylmethylamino)-N-(2,4-Dichlorobenzyl)propanamide], on S1R, the IC50 turned out to be 4.5 nM and the “Ki (S2R)/ Ki (S1R)” value was 52. Moreover, the IC50 on S2R worked out at 160 nM. Moreover, the cytotoxicity at 24 h, 100 µM in [3] worked out at 37%. Further, in [1], the “IC50 (SY5Y)/ Ki (S1R)” value is on record as >43,478.

In the case of `O=C(OCCN1CCOCC1)C1(c2ccccc2)CCCCC1` [PRE-084, reference compound], the S1R-BiP complex levels result at S1R-BiP complex (30 min incubation, CHO cells) is “less than 50 % of the control”.

For the molecule `CN(CCC(=O)NCc1ccc([N+](=O)[O-])cc1)Cc1ccccc1` [Compound 7, 3-(Benzylmethylamino)-N-(4-Nitrobenzyl)propanamide], at S1R, the Ki amounted to 110 nM, the IC50 was 220 nM and the “Ki (S2R)/ Ki (S1R)” value came to 59. This molecule also came in with an IC50 at S2R of 8600 nM. In addition, the cytotoxicity at 24 h, 100 µM in [3] turned out to be 9%. Further, the “IC50 (SY5Y)/ Ki (S1R)” value in data set [1] is given as over 909.
